In experiment [1] the target is Beta-lactamase (Pseudomonas aeruginosa (strain ATCC 15692 / PAO1 / 1C / PRS 101 / LMG12228)) (UniProt P24735). Put plainly: Inhibition of Pseudomonas aeruginosa beta-lactamase AmpC at 2 uM.
Experiment [2] shares this target. Nature of the experiment: Inhibition of Pseudomonas aeruginosa beta-lactamase AmpC at 0.8 uM.
Experiment [3] in a line: Inhibition of Pseudomonas aeruginosa beta-lactamase TEM-1.
In experiment [4] the target is Beta-lactamase (Acinetobacter baumannii, UniProt Q8RLA6). Put plainly: Inhibition of Acinetobacter baumannii beta-lactamase OXA40.
Beta-lactamase (Acinetobacter baumannii, UniProt Q8RLA6), sequence (Q8RLA6 whole entry): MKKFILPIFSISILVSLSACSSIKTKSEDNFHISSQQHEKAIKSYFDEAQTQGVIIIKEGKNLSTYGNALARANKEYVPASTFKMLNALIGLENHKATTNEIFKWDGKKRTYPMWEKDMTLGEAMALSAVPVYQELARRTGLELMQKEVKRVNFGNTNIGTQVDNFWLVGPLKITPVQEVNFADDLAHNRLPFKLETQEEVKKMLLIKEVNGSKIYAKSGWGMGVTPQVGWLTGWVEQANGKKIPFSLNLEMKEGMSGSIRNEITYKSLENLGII
For experiment [5], the target named is Beta-lactamase (Enterobacter cloacae, UniProt P05364). Nature of the experiment: Inhibition of Enterobacter colacae P99 Beta-lactamase.
Beta-lactamase (Enterobacter cloacae, UniProt P05364), sequence (P05364 whole entry): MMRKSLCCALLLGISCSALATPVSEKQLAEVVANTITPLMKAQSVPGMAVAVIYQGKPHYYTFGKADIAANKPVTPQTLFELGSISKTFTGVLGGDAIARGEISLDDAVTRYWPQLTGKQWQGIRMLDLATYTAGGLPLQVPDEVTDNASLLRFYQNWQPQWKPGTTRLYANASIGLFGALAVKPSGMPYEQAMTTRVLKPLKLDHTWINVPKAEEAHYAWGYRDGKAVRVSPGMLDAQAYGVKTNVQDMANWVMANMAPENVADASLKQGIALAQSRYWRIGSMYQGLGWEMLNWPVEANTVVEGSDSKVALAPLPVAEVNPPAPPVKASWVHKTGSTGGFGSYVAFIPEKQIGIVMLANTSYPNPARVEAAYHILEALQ
The target of experiment [6] is Beta-lactamase (Pseudomonas aeruginosa (strain ATCC 15692 / PAO1 / 1C / PRS 101 / LMG12228), UniProt P24735). Nature of the experiment: Inhibition of Pseudomonas aeruginosa beta-lactamase AmpC.
Beta-lactamase (Pseudomonas aeruginosa (strain ATCC 15692 / PAO1 / 1C / PRS 101 / LMG12228), UniProt P24735), sequence (P24735 whole entry): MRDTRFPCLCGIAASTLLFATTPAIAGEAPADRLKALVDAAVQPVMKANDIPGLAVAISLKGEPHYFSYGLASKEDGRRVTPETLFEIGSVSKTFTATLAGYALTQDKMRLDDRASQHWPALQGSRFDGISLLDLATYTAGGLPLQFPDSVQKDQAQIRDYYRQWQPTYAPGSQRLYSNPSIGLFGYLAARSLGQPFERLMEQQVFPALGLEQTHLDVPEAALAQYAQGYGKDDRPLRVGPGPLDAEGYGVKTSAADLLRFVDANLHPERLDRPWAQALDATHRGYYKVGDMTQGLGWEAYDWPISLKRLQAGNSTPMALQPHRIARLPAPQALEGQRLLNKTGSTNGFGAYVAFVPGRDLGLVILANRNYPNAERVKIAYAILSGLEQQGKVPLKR
Another experiment addresses Beta-lactamase SHV-5 (Klebsiella pneumoniae, UniProt P0A3M1). Nature of the experiment: Inhibition of Klebsiella pneumoniae beta-lactamase SHV5.

Beta-lactamase (Pseudomonas aeruginosa (strain ATCC 15692 / PAO1 / 1C / PRS 101 / LMG12228)), sequence (P24735 27-397 limits assumed): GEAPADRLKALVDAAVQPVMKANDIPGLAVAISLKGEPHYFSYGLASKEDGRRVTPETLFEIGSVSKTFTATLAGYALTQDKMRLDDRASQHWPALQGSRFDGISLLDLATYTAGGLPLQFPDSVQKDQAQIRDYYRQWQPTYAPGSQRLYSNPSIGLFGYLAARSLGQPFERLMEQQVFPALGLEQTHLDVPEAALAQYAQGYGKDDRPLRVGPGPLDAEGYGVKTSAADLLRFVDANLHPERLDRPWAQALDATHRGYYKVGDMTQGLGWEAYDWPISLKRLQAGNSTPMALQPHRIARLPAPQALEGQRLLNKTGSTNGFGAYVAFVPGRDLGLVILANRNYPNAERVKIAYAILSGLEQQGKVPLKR
Beta-lactamase SHV-5, sequence (P0A3M1 whole entry): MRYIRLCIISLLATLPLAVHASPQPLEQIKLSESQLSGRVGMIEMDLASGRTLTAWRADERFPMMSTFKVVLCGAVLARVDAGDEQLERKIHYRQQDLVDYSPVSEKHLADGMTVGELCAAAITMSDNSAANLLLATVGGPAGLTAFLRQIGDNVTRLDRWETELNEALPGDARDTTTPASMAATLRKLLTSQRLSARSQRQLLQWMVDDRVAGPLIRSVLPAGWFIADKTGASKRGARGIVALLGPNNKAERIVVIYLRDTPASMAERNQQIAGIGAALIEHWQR

The inhibition is the relative decrease from the control value, in per cent. Regarding `O=C(CC(=O)C(F)(F)F)c1ccco1`, in experiment [1], the inhibition is 14%.

As to `O=C(O)C1CCN1S(=O)(=O)c1cc(Cl)cc(Cl)c1` (configuration not stated), in experiment [1], the inhibition turned out to be 9%.

For the compound `O=S(=O)(NCB(O)O)c1ccccc1`, the inhibition in experiment [2] came to 29%.

Regarding `N#Cc1cc(Br)cc(S(=O)(=O)NCC(=O)O)c1`, in experiment [1], the inhibition came to 4%.

`CN(CC(=O)O)S(=O)(=O)c1ccc(N)cc1`: in experiment [1], the inhibition was -10%.

For `O=C(O)CNS(=O)(=O)c1ccc(CCCCC2CCNCC2)cc1`, the inhibition in experiment [1] was found to be 18%.

With `CC(C(=O)c1ccccc1)C(=O)C(F)(F)F` (configuration not stated), in experiment [1], the inhibition was 11%.

Turning to `O=C(O)C1CCCN1S(=O)(=O)c1ccccc1` (configuration not stated), in experiment [1], the inhibition is 18%.

Turning to `O=C(CC(=O)C(F)(F)F)c1ccccc1`, in experiment [1], the inhibition came out at 18%.

One may read the IC50 as the concentration needed to halve the response being measured. A low value points to greater potency. As to `O=S(=O)(NCB(O)O)c1cc2c(Cl)ccc(Cl)c2s1`, the 50% inhibitory concentration (IC50) in experiment [3] is 1100 nM; at Beta-lactamase [4] it was 5600 nM; on Beta-lactamase [5], 620 nM; against Beta-lactamase [6], 1200 nM; on Beta-lactamase SHV-5, 570 nM.

As for `O=C(CC(=O)C(F)(F)F)c1cccnc1`, in experiment [1], the inhibition was 19%.

For `CC(C(=O)c1cccs1)C(=O)C(F)(F)F` (configuration not stated), in experiment [1], the inhibition was 11%.

On to `O=C(O)C1CCN1S(=O)(=O)c1cccnc1` (configuration not stated), for which the inhibition in experiment [1] worked out at 5%.

For the origin of these results see ChEMBL document CHEMBL1156997, “4,7-Dichloro benzothien-2-yl sulfonylaminomethyl boronic acid: first boronic acid-derived beta-lactamase inhibitor with class A, C, and D activity” (Bioorg Med Chem Lett, 2010).
